Reference: the NIST ThermoML archive (doi:10.1021/je100145f)

Experiment: molar heat capacity at constant pressure; xn = mol fraction of the nth substance listed
Conditions: 101 kPa, Liquid, Small sample (50 mg) DSC

N#Cc1ccccc1 [benzonitrile] + CCCCCCCCC
molar heat capacity at constant pressure [J/K/mol]
Conditions	285.15 K	288.15 K	293.15 K	298.15 K	303.15 K	308.15 K	313.15 K
x1 = 0.0239	275.6	276.8	278.87	280.98	283.18	285.48	287.76
x1 = 0.0499	272.83	274.01	276.02	278.11	280.26	282.5	284.75
x1 = 0.0989	267.94	269.06	270.98	272.97	275.01	277.16	279.34
x1 = 0.1984	258.53	259.47	261.13	262.87	264.72	266.66	268.65
x1 = 0.2543	253.53	254.27	255.7	257.26	258.97	260.77	262.65
x1 = 0.3	249.7	250.12	251.28	252.66	254.22	255.89	257.63
x1 = 0.4004	242.4	241.04	241.24	242.16	243.44	244.94	246.59
x1 = 0.4968	234.22	230.79	230.43	231.16	232.33	233.66	235.16
x1 = 0.6	217.32	216.76	217.29	218.27	219.53	220.89	222.37
x1 = 0.6996	202.24	202.88	204.1	205.37	206.74	208.21	209.67
x1 = 0.8	189.2	189.97	191.28	192.63	194	195.39	196.84
x1 = 0.9	176.74	177.48	178.75	180.02	181.35	182.67	184.01
x1 = 0.9498	170.45	171.18	172.4	173.65	174.93	176.22	177.48
x1 = 0.9805	166.46	167.19	168.41	169.64	170.89	172.18	173.44
x1 = 1	163.9	164.63	165.82	167.06	168.32	169.59	170.87
